In brackets after ≈: the same amount, converted by molar mass.
Legend:
Type in all cases: cell-based
[1] = test system: P. aeruginosa 18S (101024); assay: MIC by agar dilution, P. aeruginosa 18S (101024); details: Pseudomonas aeruginosa, Diagnostic Sensitivity Test agar, inoculum 10^4 CFU/spot
Excerpt: (§1) The pharmaceutically acceptable carbapenem compounds of the present invention are useful antibacterial agents having a broad spectrum of activity in vitro against standard laboratory microorganisms, both Gram-negative and Gram-positive, which are used to screen for activity against pathogenic bacteria. The antibacterial spectrum and potency of a particular compound may be determined in a standard test system. In particular the carbapenems of the present invention show good stability to beta-lactamases and have particularly high activity in vitro against strains of Pseudomonas aeruginosa and other Gram-negative aerobic bacteria.
(§2) The following results were obtained for representative compounds on a standard in vitro test system using Diagnostic Sensitivity Test agar medium. The antibacterial activity is described in terms of the minimum inhibitory concentration (M1C) determined by the agar-dilution technique with an inoculum size of 10^4 CFU/spot.

[2] = test system: P. aeruginosa 18S IMIR (101148); assay: MIC by agar dilution, P. aeruginosa 18S IMIR (101148); details: Pseudomonas aeruginosa
Excerpt: as §1, §2

E. coli DCO (341098) = assay: MIC by agar dilution, E. coli DCO (341098); details: Escherichia coli, Diagnostic Sensitivity Test agar, inoculum 10^4 CFU/spot
Excerpt: as §1, §2

[3] = test system: P. aeruginosa PU21 (101028); assay: MIC by agar dilution, P. aeruginosa PU21 (101028); details: Pseudomonas aeruginosa, Diagnostic Sensitivity Test agar, inoculum 10^4 CFU/spot
Excerpt: as §1, §2

[4] = test system: Ent. cloacae P99^- (401054); assay: MIC by agar dilution, Ent. cloacae P99^- (401054); details: Enterobacter cloacae
Excerpt: as §1, §2

Serr. marcesens (421003) = assay: MIC by agar dilution, Serr. marcesens (421003); details: Diagnostic Sensitivity Test agar, inoculum 10^4 CFU/spot
Excerpt: as §1, §2

Pr. morganii (433001) = assay: MIC by agar dilution, Pr. morganii (433001); details: Morganella morganii, Diagnostic Sensitivity Test agar, inoculum 10^4 CFU/spot
Excerpt: as §1, §2

Strep. pyogenes (681018) = assay: MIC by agar dilution, Strep. pyogenes (681018); details: Streptococcus pyogenes, Diagnostic Sensitivity Test agar, inoculum 10^4 CFU/spot
Excerpt: as §1, §2

[5] = test system: B. fragilis AMP R (542008); assay: MIC by agar dilution, B. fragilis AMP R (542008); details: Bacteroides fragilis, Diagnostic Sensitivity Test agar, inoculum 10^4 CFU/spot
Excerpt: as §1, §2

S. dublin (369001) = assay: MIC by agar dilution, S. dublin (369001); details: Salmonella enterica, Diagnostic Sensitivity Test agar, inoculum 10^4 CFU/spot
Excerpt: as §1, §2

St. aureus 147N (601052) = assay: MIC by agar dilution, St. aureus 147N (601052); details: Staphylococcus aureus, Diagnostic Sensitivity Test agar, inoculum 10^4 CFU/spot
Excerpt: as §1, §2

C[C@@H](O)[C@H]1C(=O)N2C(C(=O)O)=C(S[C@@H]3CN[C@H](CNC(=O)c4cc(O)c(O)c(C#N)c4)C3)[C@H](C)[C@H]12 [Example 3, (1R,5R,6S,8R,2'S,4'S)-2-(2-(5-cyano-3,4-dihydroxybenzoylaminomethyl)pyrrolidin-4-ylthio)-6-(1-hydroxyethyl)-1-methyulcarbapenem-3carboxylic acid]
MIC [1]: 0.125 µg/mL (≈ 0.249 µM) | MIC [2]: 0.125 µg/mL (≈ 0.249 µM) | MIC (E. coli DCO (341098)): 0.03 µg/mL (≈ 0.0597 µM) | MIC [3]: 0.25 µg/mL (≈ 0.497 µM) | MIC [4]: 0.03 µg/mL (≈ 0.0597 µM) | MIC (Serr. marcesens (421003)): 0.25 µg/mL (≈ 0.497 µM) | MIC (Pr. morganii (433001)): 0.5 µg/mL (≈ 0.995 µM) | MIC (Strep. pyogenes (681018)): 0.008 µg/mL (≈ 0.0159 µM) | MIC [5]: 4 µg/mL (≈ 7.96 µM) | MIC (S. dublin (369001)): 0.06 µg/mL (≈ 0.119 µM) | MIC (St. aureus 147N (601052)): 0.125 µg/mL (≈ 0.249 µM)

From US5447925A, “Antibiotic compounds” (Imperial Chemical Industries PLC, priority 1991, dated 1995)
